PubChem BioAssay AID256 (DTP/NCI, 2004)
“And” between values parts separate entries of the source, which are not always exact repeats. Equal values may be shown once. Inconclusive results and toxic doses are left out. The calls were made as follows: active = survival T/C of 150% or more; inactive = T/C below 125% in these data.

Test system: CD2F1 mice, L1210 leukemia ip, survival T/C
Test: NCI In Vivo Anticancer Drug Screen. Data for tumor model L1210 Leukemia (intraperitoneal) in CD2F1 (CDF1) mice
Conditions: higher = longer survival
In short: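 Antitumor effect is scored in animals hosting a serially transplanted tumor. Values compare compound-dosed animals against vehicle-only controls as a simple quotient.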

[1] = endpoint: mean survival time, dose: 25.0 mg/kg/injection, schedule: Q01DX009 (ip), vehicle: saline
[2] = endpoint: mean survival time, dose: 50.0 mg/kg/injection, schedule: Q01DX009 (ip), vehicle: saline
[3] = endpoint: mean survival time, dose: 100.0 mg/kg/injection, schedule: Q01DX009 (ip), vehicle: saline
[4] = endpoint: mean survival time, dose: 12.5 mg/kg/injection, schedule: Q01DX009 (ip), vehicle: saline with Tween-80
[5] = endpoint: mean survival time, dose: 25.0 mg/kg/injection, schedule: Q01DX009 (ip), vehicle: saline with Tween-80
[6] = endpoint: mean survival time, dose: 50.0 mg/kg/injection, schedule: Q01DX009 (ip), vehicle: saline with Tween-80
[7] = endpoint: mean survival time, dose: 100.0 mg/kg/injection, schedule: Q01DX001 (ip), vehicle: saline with Tween-80
[8] = endpoint: mean survival time, dose: 200.0 mg/kg/injection, schedule: Q01DX001 (ip), vehicle: saline with Tween-80
[9] = endpoint: mean survival time, dose: 100.0 mg/kg/injection, schedule: Q04DX002 (ip), vehicle: saline with Tween-80
[10] = endpoint: mean survival time, dose: 400.0 mg/kg/injection, schedule: Q04DX002 (ip), vehicle: saline with Tween-80
[11] = endpoint: mean survival time, dose: 100.0 mg/kg/injection, schedule: Q04DX003 (ip), vehicle: saline with Tween-80
[12] = endpoint: mean survival time, dose: 100.0 mg/kg/injection, schedule: Q01DX001 (ip), vehicle: saline
[13] = endpoint: mean survival time, dose: 200.0 mg/kg/injection, schedule: Q04DX002 (ip), vehicle: saline with Tween-80

Measured: T/C

c1ccc(-c2ccc(C3=NN(c4ccccc4)C(c4ccccc4)C3NC3CCCCC3)cc2)cc1 (stereo not drawn)
inactive: endpoint: mean survival time, dose: 12.5 mg/kg/injection, schedule: Q01DX009 (ip), vehicle: other 100 % of control | endpoint: mean survival time, dose: 25.0 mg/kg/injection, schedule: Q01DX009 (ip), vehicle: other 104 % of control | endpoint: mean survival time, dose: 50.0 mg/kg/injection, schedule: Q01DX009 (ip), vehicle: other 98 % of control | endpoint: mean survival time, dose: 100.0 mg/kg/injection, schedule: Q01DX009 (ip), vehicle: other 106 % of control | endpoint: mean survival time, dose: 200.0 mg/kg/injection, schedule: Q01DX009 (ip), vehicle: other 98 % of control

NC(=O)CC(NC(c1ccccc1)(c1ccccc1)c1ccccc1)C(=O)ON1C(=O)CCC1=O (stereo not drawn)
inactive: endpoint: mean survival time, dose: 100.0 mg/kg/injection, schedule: Q01DX001 (ip), vehicle: saline sonified 96 % of control | endpoint: mean survival time, dose: 200.0 mg/kg/injection, schedule: Q01DX001 (ip), vehicle: saline sonified 98 % of control | endpoint: mean survival time, dose: 400.0 mg/kg/injection, schedule: Q01DX001 (ip), vehicle: saline sonified 105 % of control

Cc1ccc(C2(SCC(N)C(=O)O)c3ccccc3-c3ccccc32)cc1 (stereo not drawn)
inactive: [1] 95 % of control | [2] 95 % of control | [3] 97 % of control | endpoint: mean survival time, dose: 200.0 mg/kg/injection, schedule: Q01DX009 (ip), vehicle: saline 107 % of control

COC(=O)c1ccc[n+](CCc2c[nH]c3ccccc23)c1
inactive: [4] 92 % of control | [5] 97 % of control | [6] 96 % of control and 107 % of control | [7] 101 % of control | [8] 96 % of control

ClC1C2CCC(C2)C1(Cl)Cl (stereo not drawn)
inactive: endpoint: mean survival time, dose: 0.3 mg/kg/injection, schedule: Q01DX001 (ip), vehicle: saline with Tween-80 100 % of control | endpoint: mean survival time, dose: 0.6 mg/kg/injection, schedule: Q01DX001 (ip), vehicle: saline with Tween-80 103 % of control | endpoint: mean survival time, dose: 1.2 mg/kg/injection, schedule: Q01DX001 (ip), vehicle: saline with Tween-80 102 % of control

OCCSc1c(Cl)c(Cl)c(Cl)c(Cl)c1Cl
inactive: endpoint: mean survival time, dose: 25.0 mg/kg/injection, schedule: Q04DX002 (ip), vehicle: saline with Tween-80 98 % of control | endpoint: mean survival time, dose: 50.0 mg/kg/injection, schedule: Q04DX002 (ip), vehicle: saline with Tween-80 95 % of control | [9] 115 % of control | [10] 90 % of control

CC1(C(=O)O)OCCO1
inactive: endpoint: mean survival time, dose: 100.0 mg/kg/injection, schedule: Q04DX003 (ip), vehicle: saline 97 % of control | endpoint: mean survival time, dose: 200.0 mg/kg/injection, schedule: Q04DX003 (ip), vehicle: saline 103 % of control | endpoint: mean survival time, dose: 400.0 mg/kg/injection, schedule: Q04DX003 (ip), vehicle: saline 96 % of control

NC(=S=O)C(N)=S=O
inactive: endpoint: median survival time, dose: 50.0 mg/kg/injection, schedule: Q01DX005 (ip), vehicle: saline with Tween-80 103 % of control | endpoint: median survival time, dose: 100.0 mg/kg/injection, schedule: Q01DX005 (ip), vehicle: saline with Tween-80 100 % of control | endpoint: median survival time, dose: 200.0 mg/kg/injection, schedule: Q01DX005 (ip), vehicle: saline with Tween-80 111 % of control | endpoint: median survival time, dose: 400.0 mg/kg/injection, schedule: Q01DX005 (ip), vehicle: saline with Tween-80 107 % of control

CCCCCCCCCCNC1=C(Cl)C(=O)c2ccccc2C1=O
inactive: endpoint: mean survival time, dose: 25.0 mg/kg/injection, schedule: Q04DX003 (ip), vehicle: saline with Tween-80 98 % of control | endpoint: mean survival time, dose: 50.0 mg/kg/injection, schedule: Q04DX003 (ip), vehicle: saline with Tween-80 94 % of control | [11] 95 % of control

O=[N+]([O-])c1cc(S(=O)(=O)O)cc([N+](=O)[O-])c1Cl
inactive: [1] 103 % of control | [2] 96 % of control | [3] 98 % of control and 103 % of control

COC(=O)c1ccc(N=NN(C)C)cc1
inactive: endpoint: mean survival time, dose: 23.0 mg/kg/injection, schedule: Q01DX009 (ip), vehicle: Klucel (hydroxypropylcellulose) (HPC) 108 % of control | endpoint: mean survival time, dose: 39.0 mg/kg/injection, schedule: Q01DX009 (ip), vehicle: Klucel (hydroxypropylcellulose) (HPC) 108 % of control | endpoint: mean survival time, dose: 65.0 mg/kg/injection, schedule: Q01DX009 (ip), vehicle: Klucel (hydroxypropylcellulose) (HPC) 116 % of control

CC(=O)OCC1OC(OC2C(COC(C)=O)OC(OC(C)=O)C(OC(C)=O)C2OC(C)=O)C(OC(C)=O)C(OC(C)=O)C1OC(C)=O (stereo not drawn)
inactive: [12] 100 % of control | endpoint: mean survival time, dose: 200.0 mg/kg/injection, schedule: Q01DX001 (ip), vehicle: saline 91 % of control | endpoint: mean survival time, dose: 400.0 mg/kg/injection, schedule: Q01DX001 (ip), vehicle: saline 97 % of control

Cc1ccc(S(=O)(=O)Oc2cccc(C)c2)cc1
inactive: endpoint: mean survival time, dose: 100.0 mg/kg/injection, schedule: Q01DX009 (ip), vehicle: saline with Tween-80 96 % of control | [11] 100 % of control | endpoint: mean survival time, dose: 200.0 mg/kg/injection, schedule: Q01DX009 (ip), vehicle: saline with Tween-80 96 % of control | endpoint: mean survival time, dose: 200.0 mg/kg/injection, schedule: Q04DX003 (ip), vehicle: saline with Tween-80 99 % of control | endpoint: mean survival time, dose: 400.0 mg/kg/injection, schedule: Q01DX009 (ip), vehicle: saline with Tween-80 91 % of control | endpoint: mean survival time, dose: 400.0 mg/kg/injection, schedule: Q04DX003 (ip), vehicle: saline with Tween-80 94 % of control

Cc1cc(=O)[nH]cn1
inactive: endpoint: mean survival time, dose: 100.0 mg/kg/injection, schedule: Q04DX002 (ip), vehicle: saline 105 % of control | endpoint: mean survival time, dose: 200.0 mg/kg/injection, schedule: Q04DX002 (ip), vehicle: saline 105 % of control | endpoint: mean survival time, dose: 400.0 mg/kg/injection, schedule: Q04DX002 (ip), vehicle: saline 97 % of control

O=c1ccccn1CCc1ccccc1
inactive: [4] 101 % of control | [5] 98 % of control | [6] 101 % of control

O=C(O)Cc1cc(O)c(CC(=O)O)cc1O
inactive: [9] 95 % of control | [13] 95 % of control | [10] 91 % of control

NNc1c(F)ccc(F)c1F
inactive: endpoint: mean survival time, dose: 25.0 mg/kg/injection, schedule: Q01DX001 (ip), vehicle: saline with Tween-80 100 % of control | endpoint: mean survival time, dose: 50.0 mg/kg/injection, schedule: Q01DX001 (ip), vehicle: saline with Tween-80 100 % of control | [7] 94 % of control

CCOc1ccc(NC(=O)OCC(C)C)cc1
inactive: [7] 97 % of control | [8] 101 % of control | endpoint: mean survival time, dose: 400.0 mg/kg/injection, schedule: Q01DX001 (ip), vehicle: saline with Tween-80 89 % of control

O=C1c2ccccc2C(=O)N1CC(O)COc1ccccc1[N+](=O)[O-] (stereo not drawn)
inactive: [9] 88 % of control | [13] 100 % of control

O=C(C[n+]1ccccc1)c1ccccc1
inactive: endpoint: mean survival time, dose: 25.0 mg/kg/injection, schedule: Q01DX001 (ip), vehicle: saline 102 % of control | endpoint: mean survival time, dose: 50.0 mg/kg/injection, schedule: Q01DX001 (ip), vehicle: saline 106 % of control | [12] 96 % of control and 97 % of control | [9] 96 % of control

Nc1nc(N)c2c(n1)NCN(CCc1ccccc1Cl)C2
inactive: endpoint: mean survival time, dose: 0.75 mg/kg/injection, schedule: Q01DX009 (ip), vehicle: distilled water + Tween-80 93 % of control | endpoint: mean survival time, dose: 1.5 mg/kg/injection, schedule: Q01DX009 (ip), vehicle: distilled water + Tween-80 98 % of control | endpoint: mean survival time, dose: 3.0 mg/kg/injection, schedule: Q01DX009 (ip), vehicle: distilled water + Tween-80 94 % of control | endpoint: mean survival time, dose: 6.0 mg/kg/injection, schedule: Q01DX009 (ip), vehicle: distilled water + Tween-80 100 % of control | endpoint: mean survival time, dose: 12.0 mg/kg/injection, schedule: Q01DX009 (ip), vehicle: distilled water + Tween-80 94 % of control | endpoint: mean survival time, dose: 24.0 mg/kg/injection, schedule: Q01DX009 (ip), vehicle: distilled water + Tween-80 102 % of control | endpoint: mean survival time, dose: 48.0 mg/kg/injection, schedule: Q01DX009 (ip), vehicle: distilled water + Tween-80 96 % of control | endpoint: mean survival time, dose: 80.0 mg/kg/injection, schedule: Q01DX009 (ip), vehicle: distilled water + Tween-80 96 % of control
